Legend:
Human 11βHSD1 = molecular target: T1, Human 11βHSD1 (Homo sapiens, UniProt P28845); assay: 11β HSD1 cortisol radioimmunoassay (RIA) with human hepatic microsomes; type: biochemical; settings: RIA format; Lineweaver-Burke; Buffer 3, 10 μg/well microsomal protein, 30 min; read-out: apparent Km
T1 construct: the enzyme source, native hepatic enzyme compared to recombinant enzyme; tissue XenoTech H0610/Lot 0210078; host or cells: human hepatic microsomes
Procedure: Biological Assay Development Using Human 11β-Hydroxysteroid Dehydrogenase Type 1. Standard Operating Procedure for the 11β-Hydroxysteroid Dehydrogenase Type 1 Cortisol Radioimmunoassay. 11β HSD1 Cortisol RIA
Enzyme assay buffer: 30 mM Tris-HCL, pH 7.2 containing 1 mM EDTA
Antibody binding buffer: 50 mM Tris-HCL, pH 8, containing 0.1 M NaCl and 0.1% gelatin
Dilute into assay buffer 1 in 25. Also dilute neat DMSO 1 in 25 into assay buffer for controls.
Dilute this 1 in 50 into assay buffer.
Prepare NADPH as a 1.8 mg/ml solution in assay buffer.
Mix these 3 solutions 1:1:1 to make a solution of sufficient volume for 25 μl additions to each sample. Add 0.5 μCi tritiated cortisone per 25 μl and mix the solution well.
Microsome preparation: Dilute stock 20 mg/ml solution 1 in 100 with assay buffer.
Dextran coated charcoal preparation: Make a 20 mg/ml solution in antibody binding buffer and chill on ice.
Enzyme assay: To a u-bottom polypropylene 96 well plate add:
25 μl compound dilution or diluted DMSO to controls, NSB's and blanks
10 μl 1 mM GA in DMSO (enzyme stop solution) to blanks
25 μl substrate mixture to all samples
50 μl diluted microsomes to all samples
Incubate plate for 30 min at 37° C. shaking
Add 10 μl enzyme stop solution to all wells except the blanks
Add 100 μl antibody solution to all wells except the NSB's, add antibody binding buffer to these wells
Incubate at 37° C. for 1 h
Chill plate on ice for 15 min
Add 50 μl/well charcoal solution and mix with an 8-channel pipette (4-5 aspirations)
Centrifuge at 4° C., 2000×g for 15 min
Transfer 100 μl supernatant into an Optiplate, also add 25 μl substrate mixture to 2 empty wells to indicate counting efficiency
Add 200 μl Microscint-40 to all wells and count on a Topcount
The 11β HSD1 enzyme assay was carried out following the standard operating procedure described above in u-bottom polypropylene 96 well plates or 1.5 ml Eppendorf tubes as indicated for each experiment. Subsequent to stopping the enzyme reaction, 100 μl antibody prepared in buffer 3 unless otherwise indicated was added to test samples and 100 μl buffer 3 was added to the NSB samples. The samples were incubated for 1 hour at 37° C. and the chilled on ice for 15 mins. Dextran coated charcoal (50 μl/sample) prepared to the indicated concentration in buffer 3 was added and the samples were mixed (vortex for tubes and aspiration 5 times with an 8-channel pipette for 96 well plates) and chilled for a further 10 min. The samples were centrifuged at 2000×g for 15 min at 4° C. to pellet the charcoal. Aliquots of the supernatant (100 μl) were transferred to an Optiplate and counted on the Topcount in 150-200 μl Microscint 40. In some experiments, aliquots of supernatant were transferred to scintillation vials and counted on the Tricarb LSC in 5 ml Ultima Gold scintillant.
Substrate saturation was examined. The enzyme assay was carried out exactly described in the methods section, in Buffer 3 with 10 μg/well microsomal protein and with [cold cortisone] as indicated. [3H]-cortisone was 0.5 μCi/sample throughout. The reaction was stopped after 30 min by the addition of 10 μl stop solution. The RIA was carried out exactly as indicated in the methods section.
It is reported that DMSO can both increase and reduce microsomal enzyme activity, depending on the concentration, presumably due to effects on the microsomal membranes.

[1] = molecular target: T2, human hepatic microsomal 11β-HSD1 (Homo sapiens, UniProt P28845); assay: 11β HSD1 TLC format assay with human hepatic microsomes; type: biochemical; settings: Lineweaver-Burke, 10 μg microsomal protein, 30 minutes at 37° C., read-out: apparent Km for cortisone
T2 construct: the enzyme source, native hepatic enzyme compared to recombinant enzyme; tissue XenoTech H0610/Lot 0210078; host or cells: human hepatic microsomes
T2 sequence (P28845 whole entry): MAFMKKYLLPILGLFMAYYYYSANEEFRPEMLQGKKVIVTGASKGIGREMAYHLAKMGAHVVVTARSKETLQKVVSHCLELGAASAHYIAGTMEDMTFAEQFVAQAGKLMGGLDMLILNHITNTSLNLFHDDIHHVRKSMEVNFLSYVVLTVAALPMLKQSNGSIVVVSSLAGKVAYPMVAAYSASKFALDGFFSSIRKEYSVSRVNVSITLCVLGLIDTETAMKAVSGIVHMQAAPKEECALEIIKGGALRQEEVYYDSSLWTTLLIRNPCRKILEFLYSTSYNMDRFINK
Procedure: 11β-HSD1 activity in rat and human hepatic microsomes was evaluated, to determine the minimum microsomal protein concentrations required for measurement of enzyme activity. […] The assay was performed in Buffer 2 and the cortisone concentration used was 2 μM containing 0.5 μCi [^3H]-cortisone per incubation. Microsomes were tested at concentrations ranging from 50 μg to 400 μg protein per incubation in a final incubation volume of 100 μl in glass tubes. Samples were incubated for 1 h in a shaking water bath at 37° C. and the assay was stopped by addition of 1 ml ethyl acetate. To correct for recovery, 50 μl [^14C]-cortisol was added to the samples followed by 200 μl 0.05% CaCl2. The samples were vortex mixed and centrifuged as described above. The upper organic phase was removed and dried down, and the residue dissolved in 100 μl methanol and 50 μl aliquots were spotted onto TLC plates, which were run as described above. Samples were counted on a TriCarb liquid scintillation counter using a dual label programme. Recovery efficiency was determined from the DPM obtained in 50 μl [^14C]-cortisol solution, which was counted with the samples.
Lower human microsome protein concentrations were evaluated; 3.7 μg to 100 μg per sample. The time course of activity was also determined, from 0 to 60 minutes at 37° C. The extraction conditions were as described above. […]

T1 sequence (P28845 whole entry): as above

**Q.** Which results are given for `C[C@]12CCC(=O)C=C1CC[C@@H]1[C@@H]2C(=O)C[C@@]2(C)[C@H]1CC[C@]2(O)C(=O)CO` [cortisone, reference compound]?
**A.** Km (Human 11βHSD1): 0.7 µM; Km [1]: 0.66 µM

From patent publication US7786152B2, “Compound” (priority 2002, dated 2010)
